The values below come from publication PMC7801380, “Development of phenotypic assays for identifying novel blockers of L-type calcium channels in neurons” (Scientific Reports, 2021).

Like-named read-outs stand apart in the source and are kept apart here. Bounds are passed on as bounds.

What is called IC50 is the concentration that inhibits the measured activity by half. Usually inhibition stands for the percentage by which the read-out fell short of the control. What is called Ki is a measure of affinity in units of concentration, obtained from inhibition or displacement. A low value points to higher affinity.

For one series, the system named is LTCC currents. In words: Patch clamp, LTCC currents in rat cortical neurons. Format: cell-based. (Patch clamp records ionic current or voltage across a cell membrane.)
Series [1] deals with L-type calcium channels (LTCCs). In words: Calcium flux (FLIPR) assay, Bay K8644-induced responses in rat primary cortical cultures. The series is classed as cell-based. To be noted: for Block of Bay K8644-evoked calcium fluorescent response: compound 3 µM. In general terms: Calcium flux is commonly read through the fluorescence of an indicator in the cells.
In another series the target is CaV1.2 (Homo sapiens, UniProt Q13936). In words: in vitro. To be noted: pH 7.4.
CaV1.2, sequence (Q13936 1-2138 isoform Q13936-12): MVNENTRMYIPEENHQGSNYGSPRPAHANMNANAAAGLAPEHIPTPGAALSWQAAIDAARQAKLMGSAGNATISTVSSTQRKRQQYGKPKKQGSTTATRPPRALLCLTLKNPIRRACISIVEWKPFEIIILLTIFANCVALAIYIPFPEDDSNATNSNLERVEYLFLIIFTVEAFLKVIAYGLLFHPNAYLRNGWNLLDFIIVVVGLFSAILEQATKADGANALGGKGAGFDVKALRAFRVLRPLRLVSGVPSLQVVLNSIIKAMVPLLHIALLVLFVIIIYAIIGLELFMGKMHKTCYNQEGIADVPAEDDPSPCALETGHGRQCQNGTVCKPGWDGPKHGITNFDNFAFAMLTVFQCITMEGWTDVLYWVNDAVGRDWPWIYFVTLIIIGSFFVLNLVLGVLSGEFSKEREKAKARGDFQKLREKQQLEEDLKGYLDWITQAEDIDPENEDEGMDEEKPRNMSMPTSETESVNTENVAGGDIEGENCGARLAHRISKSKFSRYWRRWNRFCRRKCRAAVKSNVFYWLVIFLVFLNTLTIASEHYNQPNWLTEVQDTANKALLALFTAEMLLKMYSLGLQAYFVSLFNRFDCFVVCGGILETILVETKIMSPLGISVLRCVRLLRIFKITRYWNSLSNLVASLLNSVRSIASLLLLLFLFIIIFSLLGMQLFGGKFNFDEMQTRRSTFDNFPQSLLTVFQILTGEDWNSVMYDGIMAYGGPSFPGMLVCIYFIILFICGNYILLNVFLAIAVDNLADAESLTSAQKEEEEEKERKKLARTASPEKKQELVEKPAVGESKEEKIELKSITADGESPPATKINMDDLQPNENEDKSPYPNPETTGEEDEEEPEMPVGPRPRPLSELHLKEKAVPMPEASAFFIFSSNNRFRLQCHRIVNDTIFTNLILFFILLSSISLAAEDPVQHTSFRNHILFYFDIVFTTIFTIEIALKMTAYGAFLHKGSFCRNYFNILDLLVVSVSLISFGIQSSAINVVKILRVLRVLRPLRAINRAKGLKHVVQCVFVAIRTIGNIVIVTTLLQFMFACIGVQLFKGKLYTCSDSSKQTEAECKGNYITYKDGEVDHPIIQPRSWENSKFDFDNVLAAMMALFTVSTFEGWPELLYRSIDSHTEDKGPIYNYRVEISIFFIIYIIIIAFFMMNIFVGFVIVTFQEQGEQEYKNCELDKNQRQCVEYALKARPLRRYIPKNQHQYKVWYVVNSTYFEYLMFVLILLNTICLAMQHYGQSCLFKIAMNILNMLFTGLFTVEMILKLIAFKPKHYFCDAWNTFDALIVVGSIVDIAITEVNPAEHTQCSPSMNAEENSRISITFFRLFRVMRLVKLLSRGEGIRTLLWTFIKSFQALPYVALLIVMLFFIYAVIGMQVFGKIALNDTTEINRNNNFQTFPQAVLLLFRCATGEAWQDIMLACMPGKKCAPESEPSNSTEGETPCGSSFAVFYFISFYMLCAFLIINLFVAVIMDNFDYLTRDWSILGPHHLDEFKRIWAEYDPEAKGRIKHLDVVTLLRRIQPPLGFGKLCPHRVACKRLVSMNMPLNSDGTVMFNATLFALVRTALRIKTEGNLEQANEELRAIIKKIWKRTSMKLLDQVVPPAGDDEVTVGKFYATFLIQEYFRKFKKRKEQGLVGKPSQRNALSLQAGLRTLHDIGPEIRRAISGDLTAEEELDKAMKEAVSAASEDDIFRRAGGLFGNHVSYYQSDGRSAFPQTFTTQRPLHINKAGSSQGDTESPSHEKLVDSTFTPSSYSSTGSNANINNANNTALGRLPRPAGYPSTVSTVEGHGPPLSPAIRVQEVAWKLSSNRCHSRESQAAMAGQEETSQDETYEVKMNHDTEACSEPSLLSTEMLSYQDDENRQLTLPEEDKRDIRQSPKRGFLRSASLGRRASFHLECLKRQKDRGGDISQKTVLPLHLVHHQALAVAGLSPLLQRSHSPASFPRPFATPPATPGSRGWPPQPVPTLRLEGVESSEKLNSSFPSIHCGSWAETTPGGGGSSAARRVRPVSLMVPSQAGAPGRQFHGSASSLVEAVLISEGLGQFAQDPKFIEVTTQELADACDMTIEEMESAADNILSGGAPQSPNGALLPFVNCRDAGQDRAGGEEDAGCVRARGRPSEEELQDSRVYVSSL
The next series concerns the target Phenylalkylamine site. Kind of series: Rat cortex binding, phenylalkylamine site ([3H]D888). The note with it: [3H]D888 3 nM. The procedure: (§1) The in-vitro binding studies were conducted by Eurofins (France) using rat cortex. […] The IC50 values (the concentration that causes half-maximal inhibition of control specific binding) were determined by non-linear regression analysis of the competition curves using Hill equation: Y = […] Y = specific binding, A = left asymptote of the curve, D = right asymptote of the curve, C = compound concentration, and nH = slope factor. Analyses were performed using software developed at Eurofins (Hill software) and validated by comparison with data generated by the commercial software SigmaPlot 4.0. […] KD values were determined from Scatchard plots.

For the next series, the target named is DHP site. Kind of series: Rat cortex binding, DHP site ([3H]nitrendipine). The note with it: [3H]nitrendipine 0.1 nM. As to the method: as §1
In another series the target is Benzothiazepine site. Kind of series: Rat cortex binding, benzothiazepine site ([3H]diltiazem). To be noted: [3H]diltiazem 15 nM. The procedure: as §1
In the next series the test system is VGCCs. In words: Calcium fluorescent response to high [K+] in rat cortical cultures. The series is classed as cell-based. To be noted: 100 mM K+, compound 3 µM, holding [K+] 20 mM.
[2] abbreviates: PW library screen hit confirmation, 1.1 µM Bay K8644, holding [K+] 20 mM, read-out: FLIPR IC50 Rat cortical culture.
The mark [3] stands for this setting: Vhold/Vtest -50/-20 mV, 300 nM Bay K8644.
Setting [4] is: Vhold/Vtest -50/-20 mV, 300 nM Bay K8644, read-out: IC50, LTCC currents.
Where [5] appears, read: 300 nM Bay K8644, holding [K+] 20 mM, read-out: IC50, inhibition of Bay K-induced responses (calcium flux).

On to `COC(=O)C1=C(C)NC(C)=C([N+](=O)[O-])C1c1ccccc1C(F)(F)F` (centres unmarked) [Bay K8644], for which the EC50 in the series with LTCC currents (Vhold -50 mV, Vtest -20 mV, read-out: EC50, Bay K8644 concentration dependence (patch clamp)) came out at 40.6 nM; in series [1] (holding [K+] 20 mM, read-out: EC50, activation of LTCCs (calcium flux)), 204 nM.

With `COC(=O)C1=C(C)NC(C)=C(C(=O)OC2CCCN(Cc3ccccc3)C2)C1c1cccc([N+](=O)[O-])c1` (centres unmarked) [Benidipine], in series [1] (setting [2]), the IC50 came to 104 nM.

Consider `CN1CCC(=C2c3ccccc3C=Cc3ccccc32)CC1` [Cyproheptadine], for which the “% block of LTCC currents” value with LTCC currents (3 µM compound, -50/-20 mV, 300 nM Bay K8644) is 75.2 ± 9.1%. For the same molecule, the inhibition at 3 µM against CaV1.2 was 52.3 ± 6.1%.

For `COc1ccc(CCN(C)CCCC(C#N)(c2cc(OC)c(OC)c(OC)c2)C(C)C)cc1OC` (centres unmarked) [D600], at Phenylalkylamine site (n = 4, read-out: IC50 positive control, phenylalkylamine site binding), the IC50 is 26.8 ± 3.6 nM.

Turning to `CCOC(=O)C1=C(C)NC(C)=C(C(=O)OC)C1c1cccc(Cl)c1Cl` (centres unmarked) [Felodipine], the IC50 in series [1] (setting [2]) came to 57 nM.

For `Fc1ccc(C(OCCN2CCN(CCCc3ccccc3)CC2)c2ccc(F)cc2)cc1` [GBR 12909], in series [1] (setting [2]), the IC50 amounted to 680 nM.

On to `COC(=O)C1=C(C)NC(C)=C(C(=O)OC(C)C)C1c1cccc2nonc12` (centres unmarked) [Isradipine], for which the IC50 in series [1] (setting [2]) came to 8 nM.

Take `CCOC(=O)C1=C(C)NC(C)=C(C(=O)OCC)C1c1ccccc1/C=C/C(=O)OC(C)(C)C` [Lacidipine]: in series [1] (setting [2]), the IC50 was found to be 453 nM.

For the molecule `COC(=O)C1=C(C)NC(C)=C(C(=O)OCCN(C)Cc2ccccc2)C1c1cccc([N+](=O)[O-])c1` (centres unmarked) [Nicardipine], the IC50 in series [1] (setting [2]) turned out to be 290 nM.

For the molecule `O=C(Nc1ccc([N+](=O)[O-])cc1Cl)c1cc(Cl)ccc1O` [Niclosamide], the “max % inhibition of LTCC currents” value with LTCC currents (setting [3]) is recorded as “full efficacy”; in the series on LTCC currents (Vhold/Vtest -50/-20 mV, 300 nM Bay K8644, listed as niclosamide), 100%. The IC50 in the series on LTCC currents (setting [4]) was 183 ± 28.2 nM; in series [1] (PW library screen hit confirmation, 1.1 µM Bay K8644, holding [K+] 20 mM, listed as niclosamide, read-out: FLIPR IC50 Rat cortical culture) it was 79.5 ± 12.8 nM; in series [1] (setting [2]), 80 nM. Besides, the “20–80% rise time” value in the series with LTCC currents (at -20 mV, in presence of 200 nM compound) was determined as 16.1 ± 3.5 ms. The “Current remaining after 400 ms of depolarization, % of the peak” value with LTCC currents (depolarization to -20 mV, 200 nM compound) turned out to be 41.9 ± 7.5%. In addition, the Ki on DHP site (rat cortical homogenates), on Phenylalkylamine site (rat cortical homogenates) and at Benzothiazepine site (rat cortical homogenates) was more than 30000 nM throughout. The molecule also had an inhibition at 0.1 µM against CaV1.2 of 80.6 ± 4.9%. Besides, in series [1] (cortical cultures, n = 3), the “maximal % inhibition of LTCC-mediated calcium flux” value was determined as 100%.

Take `COC(=O)C1=C(C#N)NC(C)=C(C(=O)OC(C)C)C1c1cccc([N+](=O)[O-])c1` (centres unmarked) [Nilvadipine]: in series [1] (setting [2]), the IC50 stood at 28 nM.

For `COCCOC(=O)C1=C(C)NC(C)=C(C(=O)OC(C)C)C1c1cccc([N+](=O)[O-])c1` (centres unmarked) [Nimodipine], the figures for the “Block of high [K+]-evoked calcium fluorescent response” value in the series on VGCCs and in the series with VGCCs (listed as nimodipine) were “partially” and “partially blocked”, respectively. For the same molecule, in the series on LTCC currents (IC50 with 300 nM Bay K vs without, -50/-20 mV), the “Decrease of potency of inhibition by Bay K” value turned out to be 16.7 fold. The “max % inhibition (fraction of sensitive current)” value in the series on LTCC currents (Vhold/Vtest -50/0 mV, control (no Bay K)) was determined as 85.4 ± 3.7%; with LTCC currents (Vhold/Vtest -50/0 mV, control (no Bay K), listed as nimodipine) it was 85%; with LTCC currents (Vhold/Vtest -50/-20 mV, control (no Bay K)), 96.1 ± 0.8%; in the series with LTCC currents (Vhold/Vtest -50/-20 mV, control (no Bay K), listed as nimodipine), 96%; with LTCC currents (Vhold/Vtest -90/0 mV, control (no Bay K)), 75%. In addition, the IC50 is 28.3 ± 6.5 nM with LTCC currents (Vhold/Vtest -50/0 mV, control (no Bay K), read-out: IC50, patch clamp current); 415 nM with LTCC currents (Vhold/Vtest -50/-20 mV, 300 nM Bay K8644, listed as nimodipine, read-out: IC50, LTCC currents); 401 ± 21.8 nM in the series on LTCC currents (setting [4]); 24.8 nM with LTCC currents (Vhold/Vtest -50/-20 mV, control (no Bay K), read-out: IC50, patch clamp current); 4800 nM in the series with LTCC currents (Vhold/Vtest -90/0 mV, control (no Bay K), read-out: IC50, patch clamp current); 142 nM in series [1] (setting [5]). Further, the IC50 in series [1] (setting [2]) turned out to be 110 nM. Besides, the “max % inhibition of LTCC currents” value in the series with LTCC currents (setting [3]) is given as 99.1 ± 1.1%; with LTCC currents (Vhold/Vtest -50/-20 mV, 300 nM Bay K8644, listed as nimodipine) it was 99%. In addition, the “Block of Bay K8644-evoked calcium fluorescent response” value in series [1] (1.1 µM Bay K8644, holding [K+] 20 mM) is recorded as “completely”; in series [1] (1.1 µM Bay K8644, holding [K+] 20 mM, listed as nimodipine), “completely blocked”.

For the molecule `CCOC(=O)C1=C(C)NC(C)=C(C(=O)OC)C1c1cccc([N+](=O)[O-])c1` (centres unmarked) [Nitrendipine], the concentration for half-maximal inhibition (IC50) on DHP site (n = 4, read-out: IC50 positive control, DHP site binding) stood at 0.19 ± 0.03 nM; in series [1] (setting [2]), 140 nM.

For `COc1ccc([C@@H]2Sc3ccccc3N(CCN(C)C)C(=O)[C@@H]2OC(C)=O)cc1` [diltiazem], the IC50 in series [1] (setting [5]) turned out to be 27100 nM; on Benzothiazepine site (n = 4, read-out: IC50 positive control, benzothiazepine site binding), 42.7 ± 6.8 nM.

As to `CC(NCCC(c1ccccc1)c1ccccc1)c1ccccc1` (centres unmarked) [fendiline], in series [1] (setting [2]), the half-maximal inhibitory concentration (IC50) is 820 nM.

Take `O=C1NCN(c2ccccc2)C12CCN(CCCC(c1ccc(F)cc1)c1ccc(F)cc1)CC2` [fluspirilene]: the IC50 in series [1] (setting [2]) is 760 nM.

For the molecule `Cc1cccc(C)c1NC(=O)CN1CCN(CCCC(c2ccc(F)cc2)c2ccc(F)cc2)CC1` [lidoflazine], in series [1] (setting [2]), the half-inhibitory concentration (IC50) came out at 710 nM.
